From US11419841B2, “Uses of lipophenolic compounds” (Universite De Montpellier, priority 2017, dated 2022)
Entries after “also recorded” stand apart in the source; their conditions may differ. One block for each molecule: values may come before it.

Columns and labels:
MMP-9 [1] = target: T1, MMP-9 (Homo sapiens, UniProt P14780); test: MMP-9 activity in TNF-alpha activated THP-1 cell line (gelatin zymography); type: cell-based; conditions: for inhibition of MMP-9 activity: 30 μM, 24 h, THP-1 activated with 10 ng/mL TNF-α, zymogram (FIG. 3); for dose-response effect on the inhibitory activity of MMP9: zymogram and curve (FIG. 4)
T1 construct: endogenous in cells
Protocol: THP-1 cells (human monocytic THP-1 cell line) were cultured in 10% heated inactivated FBS RPMI 1640 medium supplemented with penicillin G 100 units/mL and streptomycin 100 μg/mL purchased from Fisher Scientific™ (Illkirch-Graffenstaden, France).
THP-1 cells were seeded (3×10^5 cell/well) in 24-well plate with 10 ng/mL TNF-α with or without 30 μM of resveratrol derivatives dissolved in DMSO. After 24 hours incubation at 37° C., supernatant was collected and tested on zymography.
Low-serum (1%) RPMI-1640 medium was used for the assessment of MMP-9 activity on TNF-alpha activated THP-1 cell line 3×10^6 cell/mL. Firstly, resveratrol and its derived lipophenolic compounds were dissolve in DMSO, and incubated at a final concentration of 30 μM with 10 ng/mL TNF-alpha treated THP-1 in CO2 incubator chamber for 24 hours at 37° C. After incubation, cell suspension was centrifuged at 1200 r.p.m for five minutes, supernatant was recovered and stored at −80° C. for zymogram analysis.
The anti MMP-9 activity was assessed using gelatin zymography. In brief, the collected supernatants were loaded on 10% SDS-polyacrylamide gel electrophoresis (PAGE) supplemented with 1% gelatin without reducing agents. After separation, gels were washed three times with 2.5% Triton X-100 and incubated with gelatinase buffer (NaCl 200 mM, Tris Base 50 mM, CaCl2) 5 mM and ZnCl2 0.25 mM; pH 7.5), for 24 hr at 37° C. on an orbital shaker at 100 r.p.m/min. Gels were further stained for one hour with Commassie Blue-staining solution (0.025% Commassie Blue, 40% methanol and 10% acetic acid) followed by destaining with 20% methanol and 10% glacial acetic acid solution until the clear bands appearance. Gels were photographed and analyzed by GelAnalyzer 2010a™ software.

MMP-9 [2] = conditions: Cheng et al. 2009, Gao et al. 2014; cited from earlier work
[3] = in vivo; Walle 2011, Chang et al. 2016; cited from earlier work
[4] = test system: HUVEC cells and THP-1 cell line; test: Cell viability assay (MTT assay); type: cell-based; conditions: 10, 20, 40 μM, 72 h, MTT (FIG. 6)
Protocol: The MTT assay is a test used to evaluate the cytotoxicity of compounds.
The cytotoxicity assay was carried out as described by Mosmann (Mosmann 1983). HUVEC cells and THP-1 cell line (1×10^4 cell/well) were seeded in 96-well plate and incubated CO2 incubator chamber at 37° C. for 24 h. Cells were treated with serial dilutions of lipophenolic derivative of resveratrol at a final concentration of 10, 20, 40 and 80 μM, and plate was incubated for 72 hours. Supernatant was discarded and MTT-serum-free medium was added to each plate and incubated for three additional hours. The formed formazan blue crystals were further dissolved by addition of 100 μL of 10% SDS in 0.1 N HCl to each plate for 2 hours. The optical density was measured at 570 nm (reference filter 690 nm) using a TECAN™ plate reader. Lethal Concentration 50% (LC50) was calculated using GraphPad Prism v.5 software.

HUVEC monolayer = test: In vitro vascular permeability assay (FITC-dextran endothelial permeability assay); type: cell-based, human; conditions: 10 μM, 100 ng/mL TNF-α, 24 h (FIG. 5)
Protocol: Human umbilical vascular endothelial cells (HUVECs) were cultured in low serum (1%) EndoGro™ medium kit purchased from Merck Millipore™ (Paris, France). TNF-α was purchased from PeproTech™ (Neuilly-Sur-Seine, France). The permeability of HUVEC monolayer seeded on collagen coated semi-permeable inserts was examined using in vitro vascular permeability assay kit, Millipore™ (Paris, France) according to the manufacturer protocol. Endothelial cells are seeded into the inserts and cultured until complete monolayer formation occurs. After forming confluent monolayer by seeding HUVECs (4×10^5 cells/insert) for 48 hours, medium was replaced with 100 ng/mL TNF-α in medium with and without MMP-9 inhibitors at 10 μM and incubated for 24 hours in CO2 chamber at 37° C. Lipophenolic derivatives of resveratrol were dissolved in DMSO, and SB-3CT (gelatinase inhibitor) was dissolved in DMSO. At the end of the permeability treatment, 150 μl FITC-dextran in media solution were incubated for 20 minutes at room temperature protected from light. FITC-dextran permeates the treated cell monolayer into the plate well. Permeation was stopped by removing the inserts and 100 μl were withdrawn from the receiving tray and added to 96-well opaque plate for fluorescence measurement. The resulting fluorescence in the plate well is measured and used as an indicator of the extent of monolayer permeability. […]

[5] = test system: TNF-α release by LPS-activated BV-2 microglia; test: TNF-α release by LPS-activated BV-2 microglia (AlphaLISA); type: cell-based, murine; conditions: 30 μM, 24 h after LPS, BV2 cells, mean±SEM (FIG. 7)
Protocol: BV-2 cells that are derived from raf/myc-immortalised murine neonatal microglia are the most frequently used substitute for primary microglia (Blasi et al., 1990).
BV-2 cells were maintained in 75 cm2 culture flasks in Dulbecco's Modified Eagle's Medium (DMEM, Sigma) supplemented with 10% fetal bovine serum (FBS, Sigma) and 1% Penicillin-Streptomycin solution (Sigma), and cultured at 37° C. in a humidified atmosphere of 5% CO2.
BV-2 cells were plated on 24-well plates at a density of 10^5 cells per well. On the following day cells were subjected to different treatments. To study the effect of Resv-LA on TNF-alpha production by LPS activated BV-2 cells, the cells were incubated in medium containing 1 mg/ml LPS (Sigma-Aldrich) for 24 h, with or without Resv-LA (REV-LA) 30 μM.
Supernatants from untreated and treated cells were centrifuged at 5000 rpm for 5 minutes and assayed for their TNF-α contents using the TNF-α (mouse) AlphaLISA Detection Kit of Perkin-Elmer. TNF-α released was normalized by cell number and expressed as percentage of the maximal released obtained in the LPS-stimulated condition.
Data are expressed as mean±SEM. Statistical analysis of differences between groups was performed by using unpaired t-test/Mann-Whitney. […]

T1 sequence (P14780 94-707): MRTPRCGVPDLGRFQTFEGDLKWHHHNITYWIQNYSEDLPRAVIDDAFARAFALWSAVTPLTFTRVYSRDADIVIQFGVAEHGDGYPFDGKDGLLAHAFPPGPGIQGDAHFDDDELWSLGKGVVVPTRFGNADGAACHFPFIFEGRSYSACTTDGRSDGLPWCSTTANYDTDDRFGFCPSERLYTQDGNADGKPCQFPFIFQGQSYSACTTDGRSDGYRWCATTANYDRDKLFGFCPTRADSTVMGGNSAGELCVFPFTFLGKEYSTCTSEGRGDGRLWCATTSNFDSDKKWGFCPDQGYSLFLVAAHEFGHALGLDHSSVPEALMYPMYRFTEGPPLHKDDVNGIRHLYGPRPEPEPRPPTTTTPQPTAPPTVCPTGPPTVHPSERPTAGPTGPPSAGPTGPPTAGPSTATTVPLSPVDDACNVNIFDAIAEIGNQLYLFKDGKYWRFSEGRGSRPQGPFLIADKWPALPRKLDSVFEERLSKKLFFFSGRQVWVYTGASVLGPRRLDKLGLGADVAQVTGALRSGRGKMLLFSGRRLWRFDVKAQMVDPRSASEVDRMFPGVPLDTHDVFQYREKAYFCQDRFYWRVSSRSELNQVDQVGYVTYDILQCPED

Compound: CC/C=C\C/C=C\C/C=C\C/C=C\C/C=C\C/C=C\CCC(=O)Oc1cc(O)cc(/C=C/c2ccc(O)cc2)c1 [Compound 3-Resv-DHA, (4,7,10,13,16,19Z)-3-hydroxy-5-((E)-4-hydroxystyryl)phenyl docosa-4,7,10,13,16,19-hexaenoate]
- inhibition of MMP-9 activity (MMP-9 [1]): did not show any inhibitory activity; also recorded: not active

Compound: Oc1ccc(C=Cc2cc(O)cc(O)c2)cc1 [Resveratrol]
- inhibition of the activity of MMP-9 (reported) (MMP-9 [2]): inhibit the activity of MMP-9
- bioavailability [3]: poor bioavailability

Compound: CCCCCCCCCCCCCCCCCCCCCC(=O)Oc1ccc(/C=C/c2cc(O)cc(O)c2)cc1 [Resv-C22, (E)-4-(3,5-dihydroxystyryl)phenyl docosanoate]
- inhibition of MMP-9 activity (MMP-9 [1]): demonstrated inhibition of MMP9-activity
- dose-response effect on the inhibitory activity of MMP9 (MMP-9 [1]): dose-response effect
- cytotoxic effect on viability [4]: does not have cytotoxic effect

- inhibition of MMP-9 activity (MMP-9 [1]): reduced MMP-9 activity
Compound: CC/C=C\C/C=C\C/C=C\C/C=C\C/C=C\C/C=C\CCC(=O)Oc1ccc(/C=C/c2cc(O)cc(O)c2)cc1 [4′-Resv-DHA, (4,7,10,13,16,19 Z)-4-((E)-3,5-dihydroxyphenylstyryl)phenyl docosa-4,7,10,13,16,19-hexaenoate]

Compound: CCCCC/C=C\C/C=C\CCCCCCCC(=O)Oc1ccc(/C=C/c2cc(O)cc(O)c2)cc1 [Resv-LA, (9,12Z)-4-((E)-3,5-dihydroxystyryl)phenyl octadeca-9,12-dienoate]
- inhibition of MMP-9 activity (MMP-9 [1]): best activity; also recorded: demonstrated inhibition of MMP9-activity
- dose-response effect on the inhibitory activity of MMP9 (MMP-9 [1]): dose-response effect
- inhibition of TNF-alpha-enhanced permeability of the HUVEC monolayer (HUVEC monolayer): demonstrated inhibition
- cytotoxic effect on viability [4]: does not have cytotoxic effect
- TNF-α released, as percentage of the maximal released obtained in the LPS-stimulated condition [5]: 66.1±4.2 percentage
